Source: ChEMBL document CHEMBL4699579, “A Peptidyl Inhibitor that Blocks Calcineurin-NFAT Interaction and Prevents Acute Lung Injury” (J Med Chem, 2020)
Active and inactive are the calls of the source. No cut-off for these calls is given here.

Columns and labels:
[1] = Toxicity in C57BL/6 mouse assessed as effect on body temperature at 50 mg/kg, ip; type: organism-based; settings: in vivo
Mus musculus [2] = test: Anti-inflammatory activity in BALB/c mouse model of LPS-induced ALI assessed as reduction in LPS-induced extravasated BALF protein in BALF at 5 mg/kg dosed via intranasal insuffIation pre-treated 2 hrs before LPS stimulation for 16 hrs; type: functional, organism-based; settings: dose mg/kg 5-10, time 18.0 hrs
Macrophage [3] = test: Inhibition of calcineurin-NFATc3 interaction in mouse bone marrow-derived macrophages assessed as reduction in LPS-induced NFATc3 nuclear translocation at 1 uM pre-incubated before LPS stimulation for 1 hr using biotinylated compound by immunofluorescence staining assay
[4] = Solubility in PBS containing 5% DMSO at pH 7.4 incubated for 1 hr; type: physicochemical
[5] = Toxicity in C57BL/6 mouse assessed as efect on animal growth rates at 50 mg/kg, ip measured during 1 weeks; type: organism-based; settings: in vivo, 168 h
NCI-H441 = test: Toxicity in human NCI-H441 cells assessed as reduction in cell viability up to 25 uM incubated for 72 hrs by MTT assay; type: cell-based; settings: nci-h441, 72 h
Macrophage [6] = test: Inhibition of calcineurin-NFATc3 interaction in mouse lung macrophages assessed as reduction in LPS-induced IL6 production at 0.1 to 10 uM pre-incubated 4 hrs before LPS stimulation for 8 hrs by ELISA; type: tissue-based; settings: dose microM 0.1-10, time 12.0 hrs
[7] = Toxicity in of C57BL/6 mouse assessed as effect on lactate dehydrogenase level in total lung cells at 5 mg/kg using TMR-labeled compound instilled into both nostrils measured after 24 hrs by Cyto-tox 96 assay; type: organism-based; settings: in vivo, inhaled_or_intranasal
[8] = Toxicity in C57BL/6 mouse assessed as effect on physical appearance at 50 mg/kg, ip; type: organism-based; settings: in vivo
Macrophage [9] = test: Inhibition of calcineurin-NFATc3 interaction in mouse lung macrophages assessed as reduction in LPS-induced TNFalpha production at 0.1 to 10 uM pre-incubated 4 hrs before LPS stimulation for 8 hrs by ELISA; type: tissue-based; settings: dose microM 0.1-10, time 12.0 hrs
[10] = Drug localization in total leukocytes of C57BL/6 mouse assessed as TMR-positive total leukocytes at 5 mg/kg using TMR-labeled compound instilled into both nostrils measured after 24 hrs by flow cytometry; type: ADME, organism-based, Leucocyte; settings: in vivo, inhaled_or_intranasal
HeLa = test: Toxicity in human HeLa cells assessed as reduction in cell viability up to 25 uM incubated for 72 hrs by MTT assay; type: cell-based
Mus musculus [11] = test: Anti-inflammatory activity in BALB/c mouse model of LPS-induced ALI assessed as reduction in LPS-induced TNFalpha in BALF at 5 mg/kg dosed via intranasal insuffIation pre-treated 2 hrs before LPS stimulation for 16 hrs; type: functional, organism-based; settings: dose mg/kg 5-10, time 18.0 hrs
Mus musculus [12] = test: Anti-inflammatory activity in BALB/c mouse model of LPS-induced ALI assessed as reduction in LPS-induced extravasated BALF protein in BALF at 10 mg/kg dosed via intranasal insuffIation pre-treated 2 hrs before LPS stimulation for 16 hrs; type: functional, organism-based; settings: time 18.0 hrs
[13] = Toxicity in C57BL/6 mouse assessed as effect on self grooming at 50 mg/kg, ip; type: organism-based; settings: in vivo
Mus musculus [14] = test: Anti-inflammatory activity in BALB/c mouse model of LPS-induced ALI assessed as reduction in LPS-induced TNFalpha in plasma at 5 mg/kg dosed via intranasal insuffIation pre-treated 2 hrs before LPS stimulation for 16 hrs; type: functional, organism-based; settings: dose mg/kg 5-10, time 18.0 hrs
Mus musculus [15] = test: Anti-inflammatory activity in BALB/c mouse model of LPS-induced ALI assessed as reduction in number of neutrophils BALF at 5 mg/kg dosed via intranasal insuffIation pre-treated 2 hrs before LPS stimulation for 16 hrs; type: functional, organism-based; settings: dose mg/kg 5-10, time 18.0 hrs
[16] = Drug localization in plasma of C57BL/6 mouse at 5 mg/kg using TMR-labeled compound instilled into both nostrils measured after 24 hrs by flow cytometry; type: ADME, organism-based; settings: in vivo, inhaled_or_intranasal
Mus musculus [17] = test: Anti-inflammatory activity in BALB/c mouse model of LPS-induced ALI assessed as reduction in number of neutrophils BALF at 10 mg/kg dosed via intranasal insuffIation pre-treated 2 hrs before LPS stimulation for 16 hrs; type: functional, organism-based; settings: time 18.0 hrs
[18] = Toxicity in of C57BL/6 mouse assessed as induction of neutrophil infiltration at 5 mg/kg using TMR-labeled compound instilled into both nostrils measured after 24 hrs by Hema-3.0 staining based assay; type: organism-based; settings: in vivo, inhaled_or_intranasal
[19] = Drug uptake in human HeLa cells at 5 uM incubated for 2 hrs using naphthofluorescein-labelled compound by live-cell confocal microscopic analysis; type: ADME, cell-based
Mus musculus [20] = test: Anti-inflammatory activity in BALB/c mouse model of LPS-induced ALI assessed as reduction in lung wet-to-dry ratios at 5 mg/kg dosed via intranasal insuffIation pre-treated 2 hrs before LPS stimulation for 16 hrs; type: functional, organism-based; settings: dose mg/kg 5-10, time 18.0 hrs
Mus musculus [21] = test: Anti-inflammatory activity in BALB/c mouse model of LPS-induced ALI assessed as reduction in LPS-induced TNFalpha in BALF at 10 mg/kg dosed via intranasal insuffIation pre-treated 2 hrs before LPS stimulation for 16 hrs; type: functional, organism-based; settings: time 18.0 hrs
[22] = Stability in 25% human serum assessed as compound degradation at 5 uM at 37 degC incubated for 24 hrs by HPLC analysis; type: ADME, cell-free; settings: 25% human serum, read-out: Drug degradation
Mus musculus [23] = test: Anti-inflammatory activity in BALB/c mouse model of LPS-induced ALI assessed as reduction in LPS-induced IL6 in BALF at 5 mg/kg dosed via intranasal insuffIation pre-treated 2 hrs before LPS stimulation for 16 hrs; type: functional, organism-based; settings: dose mg/kg 5-10, time 18.0 hrs
Mus musculus [24] = test: Anti-inflammatory activity in BALB/c mouse model of LPS-induced ALI assessed as reduction in LPS-induced IL6 in plasma at 5 mg/kg dosed via intranasal insuffIation pre-treated 2 hrs before LPS stimulation for 16 hrs; type: functional, organism-based; settings: dose mg/kg 5-10, time 18.0 hrs
[25] = Toxicity in C57BL/6 mouse assessed as induction of body weight loss at 50 mg/kg, ip measured during 1 weeks; type: organism-based; settings: in vivo, 168 h
[26] = Toxicity in C57BL/6 mouse assessed as effect on animal growth rates at 10 mg/kg dosed via intranasal insuffIation measured during 1 weeks; type: organism-based; settings: in vivo, inhaled_or_intranasal, 168 h
[27] = Toxicity in mouse lung macrophages cells assessed as reduction in cell viability up to 25 uM incubated for 72 hrs by MTT assay; type: tissue-based; settings: macrophage
[28] = (§1) Binding affinity to GST-tagged Calcineurin (unknown origin) assessed as reduction in binding of peptide-14 incubated for 1 hr by fluorescence polarization assay; parameters: species or system Homo sapiens
Homo sapiens = species on record: Homo sapiens; test: as §1
[29] = Toxicity in C57BL/6 mouse assessed as induction of body weight loss at 10 mg/kg dosed via intranasal insuffIation measured during 1 weeks; type: organism-based; settings: in vivo, inhaled_or_intranasal, 168 h
Mus musculus [30] = test: Anti-inflammatory activity in BALB/c mouse model of LPS-induced ALI assessed as reduction in lung wet-to-dry ratios at 10 mg/kg dosed via intranasal insuffIation pre-treated 2 hrs before LPS stimulation for 16 hrs; type: functional, organism-based; settings: time 18.0 hrs
Mus musculus [31] = test: Anti-inflammatory activity in BALB/c mouse model of LPS-induced ALI assessed as reduction in LPS-induced TNFalpha in plasma at 10 mg/kg dosed via intranasal insuffIation pre-treated 2 hrs before LPS stimulation for 16 hrs; type: functional, organism-based; settings: time 18.0 hrs
[32] = Binding affinity to GST-tagged Calcineurin (unknown origin) incubated for 1 hr by fluorescence polarization assay; parameters: species or system Homo sapiens
[33] = Tmax in BALF of C57BL/6 mouse at 5 mg/kg using TMR-labeled compound instilled into both nostrils by flow cytometry; type: ADME, organism-based, Bronchoalveolar lavage; settings: inhaled or intranasal
Mus musculus [34] = test: Anti-inflammatory activity in BALB/c mouse model of LPS-induced ALI assessed as reduction in LPS-induced IL6 in BALF at 10 mg/kg dosed via intranasal insuffIation pre-treated 2 hrs before LPS stimulation for 16 hrs; type: functional, organism-based; settings: time 18.0 hrs
[35] = Toxicity in C57BL/6 mouse assessed as effect on respiratory function measured by pulmonary arterial oxygen saturation at 50 mg/kg, ip; type: organism-based; settings: in vivo
[36] = Drug localization in total leukocytes of C57BL/6 mouse assessed as TMR-positive total leukocytes at 5 mg/kg using TMR-labeled compound instilled into both nostrils measured after 4 hrs by flow cytometry; type: ADME, organism-based, Leucocyte; settings: in vivo, inhaled_or_intranasal

In the case of `CC[C@H](C)[C@H](NC(=O)[C@@H](NC(=O)c1cccc(Cl)c1Cl)C(C)(C)C)C(=O)N[C@H](C(=O)N[C@H](C(=O)N[C@H](C(=O)N[C@@H](CCC(N)=O)C(=O)N[C@@H](Cc1cnc[nH]1)C(=O)N[C@@H](CC(C)C)C(=O)N[C@@H](CO)C(=O)NCCC(=O)N[C@@H](CCCCNC(=O)CC[C@@H]1NC(=O)[C@@H](CCCNC(=N)N)NC(=O)[C@H](CCCNC(=N)N)NC(=O)[C@@H](CCCNC(=N)N)NC(=O)[C@H](CCCNC(=N)N)NC(=O)[C@H](Cc2ccc3ccccc3c2)NC(=O)[C@@H](Cc2ccccc2)NC1=O)C(N)=O)[C@H](C)O)[C@@H](C)CC)C(C)(C)C`, the Activity [1] is reported as “Non-Toxic”, the Activity (Mus musculus [2]) is reported as “inactive” and the inhibition (Macrophage [3]) is reported as “Active”. The solubility kinetic at 1 h [4] was ≥ 100 µM, the Activity [5] was “Non-Toxic” and the Activity (NCI-H441) was “Non-Toxic”. The inhibition (Macrophage [6]; DISRUPTING AGENT) was “Dose-dependent effect”, the inhibition (Macrophage [6]) was 22% and the Activity [7] was “Non-Toxic”. The Activity [8] was “Non-Toxic”, the inhibition (Macrophage [9]; DISRUPTING AGENT) was “Dose-dependent effect” and the inhibition (Macrophage [9]) was 17%. The Drug uptake [10] was “Not Active”, the Activity (HeLa) was “Non-Toxic” and the Activity (Mus musculus [11]) was “inactive”. For the same molecule, the Activity (Mus musculus [12]) was “Active”, the Activity [13] was “Non-Toxic” and the Activity (Mus musculus [14]) was “inactive”. For the same molecule, the Activity (Mus musculus [15]) was “inactive”, the Drug uptake [16] was “Not Active” and the Activity (Mus musculus [17]) was “Active”. The Activity [18] was “Non-Toxic”, the Drug uptake [19] was “Active” and the Activity (Mus musculus [20]) was “inactive”. For the same molecule, the Activity (Mus musculus [21]) was “Active”, the metabolised at 24 h, 5 µM [22] was < 10% and the Activity (Mus musculus [23]) was “inactive”. The Activity (Mus musculus [24]) was “inactive”, the Activity [25] was “Non-Toxic” and the Activity [26] was “Non-Toxic”. The Activity [27] was “Non-Toxic”, the IC50 [28] was 630 nM and the inhibition (Homo sapiens) was “Dose-dependent effect”. For the same molecule, the Activity [29] was “Non-Toxic”, the Activity (Mus musculus [30]) was “Active” and the Activity (Mus musculus [31]) was “Active”. For the same molecule, the Kd [32] was 75 nM, the Tmax [33] was 2 h and the Activity (Mus musculus [34]) was “Active”. The Activity [35] was “Non-Toxic” and the Drug uptake [36] was 80%.
